Legend:
[1] = Pharmacokinetic study in rat plasma after oral administration of FKQJF extract (UFLC–MS/MS); assay type: in vivo, Sprague-Dawley (SD) rats; conditions: for AUC(0-inf) / AUC(0-t) / Cmax / half-life / MRT last / MRT inf / Tmax: Sprague-Dawley, oral FKQJF extract, single dose 3.2 g/kg, mean ± SD; for MRT last: read-out: MRT0→t; for MRT inf: read-out: MRT0→∞; for Tmax: read-out: Tmax
Experimental: (§1) Aliquots of 100 μL plasma samples were mixed with 10 μL I.S. samples (1 μg/mL, in MeOH), then added with 500 μL ACN, respectively, and vortexed for 5 min, centrifugated at 10,000 rpm for 10 min, the supernatants were transferred into clean vials and dried in a vacuum centrifugal concentrator at 1200 rpm, 37 °C. After that, 100 μL ACN was added and ultrasonic (frequency 40 kHz, power 250 W) extracted for 5 min to dissolve the dry residue, vortexed for 1 min and centrifugated at 10,000 rpm for 5 min, 1 μL of each final supernatant was injected into UFLC–MS/MS for analysis.
An 8050 UFLC–MS/MS system equipped with LC-30A binary pump, a SIL-30AC autosampler, a SPD-M30A PDA detector, a CTO-20AC column oven, and a 8050 triple quadrupole mass spectrometer with an electrospray ionization source (ESI) was applied to detect and quantify FKQJF compounds in plasma samples. Data were acquired and processed with the software LabSolution (Ver. 5.6).
A Kinetex XB-C18 HPLC column (100 × 2.1 mm, 2.6 μm) linked with an equivalent guard column was used for chromatographic separation. The aqueous phase contained 0.2% formic acid was used as mobile phase A, and organic phase ACN as mobile phase B. The gradient elution method using in this program was: 3–5 min, 28–31% B; 5–7 min, 31–34% B; 7–9 min, 34–65% B; 9–10 min, 65–95% B; 10–11.5 min, 95% B. The flow rate of mobile phase, column temperature and autosampler temperature was 0.4 mL/min, 30 °C and 4 °C, respectively. The injection volume of each sample was set as 1 μL. The main MS spectrum parameters were set as follows: the flow rate of drying gas (N2) was 10.0 L/min; the atomized gas was 3.0 L/min and the heating gas flow rate was 10.0 L/min. The main temperatures of interface, desolvation and heat block was 300 °C, 250 °C and 400 °C, respectively. And, the interface and detector voltage were 3 kV and 1.8 kV.
Rats were divided into a blank group and a FKQJF administration group (6 rats for each), and fasted for 24 h. Each rat of the administration group was given FKQJF extract suspension at a single dose of 3.2 g FKQJF/kg body weight through oral administration in parallel. Blood samples (0.25 mL) were gathered from the orbital venous plexus of each rat, with FKQJF group gathered at 14 serial timepoints (6 rats for each) as 0.083 h, 0.16 h, 0.33 h, 0.5 h, 0.75 h, 1.0 h, 1.5 h, 2 h, 3 h, 4 h, 6 h, 8 h, 12 h and 24 h after drug administration. The blood samples were centrifugated at 6000g for 10 min to isolate plasma and stored at − 20 °C for further analysis.
Data were analyzed using the Drug and Statistics (DAS) Software version 2.0 (DAS 2.0, Mathematical Pharmacology Professional Committee of China, Shanghai, China). The non-compartmental mode was applied to obtain the following PK parameters: area under the plasma concentration–time curve from time zero to the time of last quantifiable concentration (AUC0→t) and area under the plasma concentration–time curve to time infinity (AUC0→∞), the elimination half-life (t1/2), mean retention time to last sampling time (MRT0→t) and mean retention time to infinity (MRT0→∞). The maximum plasma concentration (Cmax) and the time to maximum concentration (Tmax) were observed directly from the concentration–time (C–T) curves and measured data. All data are presented as mean ± SD.

[2] = Freeze–thaw stability of QC samples (−20 °C, three times); assay type: physicochemical, rat; conditions: plasma QC, freeze (−20 °C) and thaw three times
Experimental: as §1
(§2) Six replicates of low, medium and high concentrations of quality control (QC) samples were used to verify the stabilities under different conditions including: place at room temperature for 8 h, freeze (− 20 °C) and thaw for three times, and store at − 20 °C for 20 days.

[3] = Ordinary stability of QC samples (room temperature for 8 h); assay type: physicochemical, rat; conditions: plasma QC, room temperature 8 h
Experimental: as §1, §2

[4] = Long-term stability of QC samples (−20 °C for 20 days); assay type: physicochemical, rat; conditions: plasma QC
Experimental: as §1, §2

[5] = oral FKQJF extract 3.2 g/kg, post dose

AUC(0-inf) [1] [ng·h/mL]	AUC(0-t) [1] [ng·h/mL]	Cmax [1] [ng/mL]	half-life [1] [h]	MRT last [1] [h]	MRT inf [1] [h]	Tmax [1] [h]	shape of the plasma concentration–time curve ([1]; oral FKQJF extract 3.2 g/kg)	Freeze–thaw stability Mean ([2]; spiked 50 ng/mL) [%]	Freeze–thaw stability Mean ([2]; spiked 250 ng/mL) [%]	Freeze–thaw stability Mean ([2]; spiked 500 ng/mL) [%]	Ordinary stability Mean ([3]; spiked 50 ng/mL) [%]	Ordinary stability Mean ([3]; spiked 250 ng/mL) [%]	Ordinary stability Mean ([3]; spiked 500 ng/mL) [%]	Long-term stability Mean ([4]; spiked 50 ng/mL) [%]	Long-term stability Mean ([4]; spiked 250 ng/mL) [%]	Long-term stability Mean ([4]; spiked 500 ng/mL) [%]	SMILES	further results
115 ± 15.8	109 ± 11.4	48 ± 4.41	1.79 ± 0.44	2.6 ± 0.12	3.37 ± 0.26	2	double-peaks	112.34	99.57	106.56	80.92	104.48	117.94	86.86	89.00	103.76	COc1cc(O[C@@H]2O[C@H](CO)[C@@H](O)[C@H](O)[C@H]2O)cc(OC)c1OC [Analyte 1, 3,4,5-trimethoxyphenol-1-O-β-D-glucopyranoside]	–
3110 ± 38.7	2970 ± 169	477 ± 33.3	5.27 ± 2.94	6.51 ± 0.66	8.09 ± 1.32	2.17 ± 0.76	–	98.92	99.07	86.48	106.33	86.35	95.34	87.08	83.50	112.17	COC(=O)c1ccc(O)cn1 [Analyte 2, 5-hydroxypicolinic acid methyl ester]	–
489 ± 37.6	463 ± 29.5	102 ± 18.4	2.66 ± 0.69	3.67 ± 0.14	4.32 ± 0.47	2.33 ± 0.58	–	84.84	92.61	90.89	93.52	84.19	109.98	81.68	86.77	93.19	O=Cc1ccc2n1C[C@]1(C[C@H](O)[C@@H](CO)O1)OC2 [Analyte 3, acortatarin A]	–
92.6 ± 21.4	80.5 ± 9.64	46.8 ± 6.78	2.2 ± 1.24	2.38 ± 0.24	3.25 ± 0.41	1 ± 0.5	–	91.90	107.25	102.81	108.94	116.00	84.20	118.34	81.20	104.85	O=Cc1ccc2n1C[C@@]1(C[C@H](O)[C@@H](CO)O1)OC2 [Analyte 4, 9-epi-acortatarin A]	–
505 ± 109	344 ± 43.1	104 ± 14.9	3.89 ± 0.85	3.51 ± 0.24	7.55 ± 1.93	1 ± 0.43	double-peaks	–	–	–	–	–	–	–	–	–	C=C1CC[C@@H]2[C@](C)(CO[C@@H]3O[C@H](CO)[C@@H](O)[C@H](O)[C@H]3O)CCC[C@@]2(C)[C@@H]1CCC1=CCOC1=O [Analyte 5, neoandrographolide]	time of first peak of the concentration–time curve [1, 5]: 0 to 1 h; time of second peak of the concentration–time curve [1, 5]: 1.5 to 3 h; Freeze–thaw stability Mean ([2]; spiked 60 ng/mL): 109.12%; Freeze–thaw stability Mean ([2]; spiked 300 ng/mL): 80.22%; Freeze–thaw stability Mean ([2]; spiked 600 ng/mL): 113.31%; Ordinary stability Mean ([3]; spiked 60 ng/mL): 81.32%; Ordinary stability Mean ([3]; spiked 300 ng/mL): 103.80%; Ordinary stability Mean ([3]; spiked 600 ng/mL): 94.88%; Long-term stability Mean ([4]; spiked 60 ng/mL): 113.28%; Long-term stability Mean ([4]; spiked 300 ng/mL): 97.44%; Long-term stability Mean ([4]; spiked 600 ng/mL): 82.61%
1010 ± 558	466 ± 51.9	79.8 ± 9.43	10.5 ± 6.63	9.19 ± 1	13.9 ± 9.49	0.08	double-peaks	–	–	–	–	–	–	–	–	–	COc1cc(/C=C/C(=O)O)ccc1O [Analyte 6, trans-ferulic acid]	Freeze–thaw stability Mean ([2]; spiked 60 ng/mL): 115.63%; Freeze–thaw stability Mean ([2]; spiked 300 ng/mL): 102.20%; Freeze–thaw stability Mean ([2]; spiked 600 ng/mL): 88.33%; Ordinary stability Mean ([3]; spiked 60 ng/mL): 88.22%; Ordinary stability Mean ([3]; spiked 300 ng/mL): 109.93%; Ordinary stability Mean ([3]; spiked 600 ng/mL): 91.44%; Long-term stability Mean ([4]; spiked 60 ng/mL): 83.07%; Long-term stability Mean ([4]; spiked 300 ng/mL): 91.27%; Long-term stability Mean ([4]; spiked 600 ng/mL): 102.00%
550 ± 70.7	468 ± 48.4	87.7 ± 26.6	7.68 ± 3.01	9.04 ± 0.68	14.2 ± 3.28	0.17	double-peaks	84.84	92.61	–	93.52	84.19	–	118.09	104.72	97.81	O=c1c(-c2ccc(O)cc2)coc2cc(O[C@@H]3O[C@H](CO)[C@@H](O)[C@H](O)[C@H]3O)cc(O)c12 [Analyte 7, genistin]	–
2140 ± 168	1800 ± 155	433 ± 53.1	2.7 ± 0.54	2.88 ± 0.15	4.31 ± 0.67	1.67 ± 0.29	double-peaks	80.11	102.50	88.21	95.42	108.42	103.60	109.80	114.13	87.97	O=C(O)c1ccccc1O [Analyte 8, salicylic acid]	–

SMILES	AUC(0-inf) [1] [ng·h/mL]	AUC(0-t) [1] [ng·h/mL]	Cmax [1] [ng/mL]	half-life [1] [h]	MRT last [1] [h]	MRT inf [1] [h]	Tmax [1] [h]	shape of the plasma concentration–time curve ([1]; oral FKQJF extract 3.2 g/kg)	Freeze–thaw stability Mean ([2]; spiked 50 ng/mL) [%]	Freeze–thaw stability Mean ([2]; spiked 250 ng/mL) [%]	Freeze–thaw stability Mean ([2]; spiked 500 ng/mL) [%]	Ordinary stability Mean ([3]; spiked 50 ng/mL) [%]	Ordinary stability Mean ([3]; spiked 250 ng/mL) [%]	Ordinary stability Mean ([3]; spiked 500 ng/mL) [%]	Long-term stability Mean ([4]; spiked 50 ng/mL) [%]	Long-term stability Mean ([4]; spiked 250 ng/mL) [%]	Long-term stability Mean ([4]; spiked 500 ng/mL) [%]	further results
COc1cc2c(cc1O)CC[n+]1cc3c(OC)c(OC)ccc3cc1-2 [Analyte 9, jatrorrhizine]	2550 ± 277	1090 ± 110	270 ± 24	9.65 ± 4.91	8.96 ± 0.4	10.5 ± 4.72	1.83 ± 0.29	–	–	–	–	–	–	–	–	–	–	Freeze–thaw stability Mean ([2]; spiked 25 ng/mL): 86.77%; Freeze–thaw stability Mean ([2]; spiked 150 ng/mL): 113.07%; Ordinary stability Mean ([3]; spiked 25 ng/mL): 104.79%; Ordinary stability Mean ([3]; spiked 75 ng/mL): 93.01%; Ordinary stability Mean ([3]; spiked 150 ng/mL): 92.51%; Long-term stability Mean ([4]; spiked 25 ng/mL): 80.63%; Long-term stability Mean ([4]; spiked 75 ng/mL): 91.97%; Long-term stability Mean ([4]; spiked 150 ng/mL): 98.06%
